Reference: ChEMBL document CHEMBL1201862, “PubChem BioAssay data set” (2004)
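Results reflect a 48-hour exposure of cells in 96-well plates to compound at five concentrations. GI50 is the concentration that inhibits growth by half.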 Activity calls are given as the source filed them. No stated cut-off is given here; in the data, active = GI50 up to about 1.1 µM and inactive = higher.

Columns and labels:
Assay in all cases: NCI-60 cell line screen, 48 h
A498 = test system: A498
ACHN = test system: ACHN
CAKI-1 = test system: CAKI-1
DU-145 = test system: DU-145
HL-60 = test system: HL-60
Hs-578T = test system: Hs-578T
K562 = test system: K562
KM12 = test system: KM12
MDA-MB-231 = test system: MDA-MB-231
NCI-H226 = test system: NCI-H226
NCI-H460 = test system: NCI-H460
NCI/ADR-RES = test system: NCI/ADR-RES
OVCAR-8 = test system: OVCAR-8
RPMI-8226 = test system: RPMI-8226
SF-539 = test system: SF-539
SK-MEL-28 = test system: SK-MEL-28
SNB-75 = test system: SNB-75
TK-10 = test system: TK-10
UACC-62 = test system: UACC-62
UO-31 = test system: UO-31

Compound | GI50 (A498) | GI50 (ACHN) | GI50 (CAKI-1) | GI50 (DU-145) | GI50 (HL-60) | GI50 (Hs-578T) | GI50 (K562) | GI50 (KM12) | GI50 (MDA-MB-231) | GI50 (NCI-H226) | GI50 (NCI-H460) | GI50 (NCI/ADR-RES) | GI50 (OVCAR-8) | GI50 (RPMI-8226) | GI50 (SF-539) | GI50 (SK-MEL-28) | GI50 (SNB-75) | GI50 (TK-10) | GI50 (UACC-62) | GI50 (UO-31)
O=C(/C=C1\C[C@H]2C=Nc3ccccc3C(=O)N2C1)NCCCCNC(=O)/C=C1\C[C@H]2C=Nc3ccccc3C(=O)N2C1 | 18.7 µM (inactive) | 3.61 µM (inactive) | 2.77 µM (inactive) | 15.2 µM (inactive) | 3.3 µM (inactive) | 29.4 µM (inactive) | 3.11 µM (inactive) | 17.5 µM (inactive) | 0.494 µM (active) | 13.8 µM (inactive) | 17.7 µM (inactive) | 22.3 µM (inactive) | 4.93 µM (inactive) | 4.24 µM (inactive) | 14.9 µM (inactive) | 15.8 µM (inactive) | 16.3 µM (inactive) | 10.4 µM (inactive) | 15.3 µM (inactive) | 2.39 µM (inactive)
CC(=O)OCC1OC(O[C@@H]2c3c(O)c4c(c(O)c3C3=C(NN(c5ccc([N+](=O)[O-])cc5[N+](=O)[O-])[Se]3=O)[C@@]2(C)O)C(=O)c2ccccc2C4=O)C(OC(C)=O)C(OC(C)=O)C1OC(C)=O (stereo partly specified) | 0.288 µM (active) | 0.222 µM (active) | 0.274 µM (active) | 0.365 µM (active) | – | 0.303 µM (active) | 0.118 µM (active) | 0.338 µM (active) | 0.346 µM (active) | 0.31 µM (active) | 0.192 µM (active) | 0.336 µM (active) | 0.191 µM (active) | 0.16 µM (active) | – | 0.242 µM (active) | 0.394 µM (active) | 0.497 µM (active) | 0.27 µM (active) | 0.239 µM (active)
CCN(CC)CCC(=O)c1ccc(Cl)c(Cl)c1 | 18.5 µM (inactive) | 76.9 µM (inactive) | – | 67.1 µM (inactive) | 32.3 µM (inactive) | 17.1 µM (inactive) | 24.8 µM (inactive) | 34.6 µM (inactive) | > 10 µM (inactive) | > 100 µM (inactive) | > 100 µM (inactive) | 34.1 µM (inactive) | 37.2 µM (inactive) | 3.61 µM (inactive) | > 10 µM (inactive) | 16.6 µM (inactive) | 27.7 µM (inactive) | > 10 µM (inactive) | 14.8 µM (inactive) | 41.3 µM (inactive)
N=C(N)SCc1cccc2c(=O)cc(-c3ccccc3)oc12 | 9.27 µM (inactive) | 3.53 µM (inactive) | 3.94 µM (inactive) | 4.93 µM (inactive) | 3.18 µM (inactive) | 16.2 µM (inactive) | 5.35 µM (inactive) | 9.29 µM (inactive) | 6.41 µM (inactive) | 15.9 µM (inactive) | 4.72 µM (inactive) | 22 µM (inactive) | 4.5 µM (inactive) | 2.54 µM (inactive) | 7.26 µM (inactive) | 4.43 µM (inactive) | 5.41 µM (inactive) | 7.57 µM (inactive) | 12.7 µM (inactive) | 2.84 µM (inactive)
Cc1ccc2c3ccc4c(c3n(C)c2c1)C(=O)C=CC4=O | > 10 µM (inactive) | 3.51 µM (inactive) | 3.36 µM (inactive) | > 10 µM (inactive) | 1.04 µM (active) | > 10 µM (inactive) | 1.03 µM (active) | > 10 µM (inactive) | 3.97 µM (inactive) | > 10 µM (inactive) | > 10 µM (inactive) | > 5.89 µM (inactive) | 4.47 µM (inactive) | 2.39 µM (inactive) | > 5.98 µM (inactive) | > 6.01 µM (inactive) | > 10 µM (inactive) | 4.82 µM (inactive) | > 8.22 µM (inactive) | > 10 µM (inactive)
CC12CC3(O)OC(O1)C1(COC(=O)c4ccccc4)C3CC21OC1OC(CO)C(O)C(O)C1O (stereo unspecified) | > 100 µM (inactive) | > 100 µM (inactive) | > 100 µM (inactive) | > 100 µM (inactive) | > 100 µM (inactive) | > 100 µM (inactive) | – | > 100 µM (inactive) | > 100 µM (inactive) | > 100 µM (inactive) | > 100 µM (inactive) | > 100 µM (inactive) | > 100 µM (inactive) | > 100 µM (inactive) | > 100 µM (inactive) | > 100 µM (inactive) | – | > 100 µM (inactive) | > 100 µM (inactive) | > 100 µM (inactive)
O=C(O)CSc1n[nH]c(=O)[nH]c1=O | > 100 µM (inactive) | > 100 µM (inactive) | > 100 µM (inactive) | > 100 µM (inactive) | > 100 µM (inactive) | > 100 µM (inactive) | > 100 µM (inactive) | > 100 µM (inactive) | > 100 µM (inactive) | > 100 µM (inactive) | > 100 µM (inactive) | > 100 µM (inactive) | > 100 µM (inactive) | > 100 µM (inactive) | > 100 µM (inactive) | > 100 µM (inactive) | > 100 µM (inactive) | – | > 100 µM (inactive) | > 100 µM (inactive)
COc1cc(C(c2cccc3ccccc23)N2C(=O)CCC2C(=O)NCc2ccccc2)cc(OC)c1OC (stereo unspecified) | > 100 µM (inactive) | – | > 100 µM (inactive) | > 100 µM (inactive) | 57.7 µM (inactive) | 83.6 µM (inactive) | – | > 100 µM (inactive) | > 100 µM (inactive) | > 100 µM (inactive) | > 100 µM (inactive) | > 100 µM (inactive) | > 100 µM (inactive) | 55.3 µM (inactive) | > 100 µM (inactive) | > 100 µM (inactive) | – | – | 64.6 µM (inactive) | > 100 µM (inactive)
CCCSC1=N/C(=C\c2ccco2)C(=O)N1 | 89.7 µM (inactive) | > 100 µM (inactive) | > 100 µM (inactive) | > 100 µM (inactive) | – | > 100 µM (inactive) | – | > 100 µM (inactive) | > 100 µM (inactive) | > 100 µM (inactive) | > 100 µM (inactive) | > 100 µM (inactive) | > 100 µM (inactive) | > 100 µM (inactive) | > 100 µM (inactive) | > 100 µM (inactive) | 97.7 µM (inactive) | > 100 µM (inactive) | > 100 µM (inactive) | > 100 µM (inactive)
O=S(=O)(NC(c1ccccc1)(c1cc2ccccc2[nH]1)c1cc2ccccc2n1S(=O)(=O)c1ccccc1)c1ccccc1 (stereo unspecified) | > 100 µM (inactive) | – | > 100 µM (inactive) | > 100 µM (inactive) | > 100 µM (inactive) | > 100 µM (inactive) | > 100 µM (inactive) | > 100 µM (inactive) | > 100 µM (inactive) | > 100 µM (inactive) | > 100 µM (inactive) | > 100 µM (inactive) | > 100 µM (inactive) | 52.1 µM (inactive) | – | > 100 µM (inactive) | > 100 µM (inactive) | > 100 µM (inactive) | > 100 µM (inactive) | > 100 µM (inactive)
C(/Cc1ccc2c(c1)OCO2)=N\N=C1NCCN1 | 18.8 µM (inactive) | > 100 µM (inactive) | – | > 100 µM (inactive) | 89.1 µM (inactive) | > 100 µM (inactive) | 43.2 µM (inactive) | > 100 µM (inactive) | > 100 µM (inactive) | 33.2 µM (inactive) | 47.8 µM (inactive) | > 100 µM (inactive) | > 100 µM (inactive) | 83.2 µM (inactive) | 79.3 µM (inactive) | > 100 µM (inactive) | 33.7 µM (inactive) | 61.7 µM (inactive) | > 100 µM (inactive) | 42.1 µM (inactive)
NS(=O)(=O)c1ccc(NC(=O)c2cc([N+](=O)[O-])cc([N+](=O)[O-])c2)cc1 | 65.2 µM (inactive) | – | > 100 µM (inactive) | 59.7 µM (inactive) | 32.1 µM (inactive) | 76.4 µM (inactive) | 43.7 µM (inactive) | 40.4 µM (inactive) | 39.4 µM (inactive) | 46.5 µM (inactive) | 31.8 µM (inactive) | > 100 µM (inactive) | 47.3 µM (inactive) | 30.2 µM (inactive) | 30.7 µM (inactive) | > 100 µM (inactive) | > 100 µM (inactive) | > 100 µM (inactive) | 15.7 µM (inactive) | 65.6 µM (inactive)
CCOC(=O)CN1C(=O)c2ccc(NC(=O)C(=O)O)cc2S1(=O)=O | > 100 µM (inactive) | > 100 µM (inactive) | > 100 µM (inactive) | > 100 µM (inactive) | > 100 µM (inactive) | > 100 µM (inactive) | > 100 µM (inactive) | > 100 µM (inactive) | > 100 µM (inactive) | > 100 µM (inactive) | > 100 µM (inactive) | > 100 µM (inactive) | > 100 µM (inactive) | > 100 µM (inactive) | – | > 100 µM (inactive) | – | > 100 µM (inactive) | > 100 µM (inactive) | > 100 µM (inactive)
CN1CCc2c(sc3ncn(C)c(=N)c23)C1 | > 100 µM (inactive) | > 100 µM (inactive) | > 100 µM (inactive) | > 100 µM (inactive) | > 100 µM (inactive) | > 100 µM (inactive) | > 100 µM (inactive) | > 100 µM (inactive) | > 100 µM (inactive) | > 100 µM (inactive) | > 100 µM (inactive) | > 100 µM (inactive) | > 100 µM (inactive) | > 100 µM (inactive) | > 100 µM (inactive) | > 100 µM (inactive) | > 100 µM (inactive) | > 100 µM (inactive) | > 100 µM (inactive) | –
